Results published in patent US20040022827A1, “Remedy for hepatopathy” (CHUGAI SEIYAKU KABUSIKI KAISHA, priority 1997, published 2004).

Columns and labels:
[1] = tested on: Rat Model of Glactosamine-Induced Acute Hepatopathy; assay: Rat model of galactosamine-induced acute hepatopathy; type: in vivo; settings: experimental fluids administered for one day; L-valine 16.88 g/L in lactated Ringer's, 100 mL/kg/day iv; mean ± SD
Protocol: (§1) Crj: Donryu male rats aged 8-9 weeks and weighing 250 g or so were used. During the experiment, the rats were given a dedicated feed MF (product of Oriental Yeast) and water ad libitum. D-Galactosamine HCl (product of Sigma) was dissolved in physiological saline, adjusted to pH 7.0 with 1 N NaOH and used as a solution containing 100 mg of D-galactosamine (hereinafter referred to simply as “galactosamine”) per milliliter. Carbon tetrachloride (product of Wako Pure Chemical Industries) was used as a 50% (v/v) solution in olive oil (product of Wako Pure Chemical Industries). After 12-h fasting, the rats were administered intraperitoneally with galactosamine in a volume of 10 mL/kg or subcutaneously with the carbon tetrachloride solution at a volume of 4 mL/kg to induce hepatopathy. Immediately after the administration, the rats were anesthetized with ether and a catheter was inserted into the right cervical vein of each animal and retained in the central vein. The catheter in the central vein was passed under the skin to connect the blade bones, fitted with a harness, passed through a protective coil and connected to a swivel (Bio-Cannula of Biomedica). The rats were transferred into a metabolic cage and subjected to the experiment under a non-anesthetized and unconstrained condition. The experimental fluids were administered constantly with the pumping speed set at 100 mL/kg/day. The experimental fluids were administered for 1-4 days. The treated groups were two, one being a control group administered with a lactated Ringer's injection [[…] (registered trademark) of Otuka Seiyaku] and the other being an L-Val group administered with valine (L-valine added to lactated Ringer's injection to a concentration of 16.88 g/L). A non-treated (NT) group was also set. After the end of administration of the experimental fluids, the rats were anesthetized with ether and blood was taken from the abdominal aorta; thereafter, autopsy was done to collect liver samples.

[2] = tested on: Rat Model of CC14-Induced Acute Hepatopathy; assay: Rat model of carbon tetrachloride-induced acute hepatopathy; type: in vivo; settings: experimental fluids administered for two days; L-valine 16.88 g/L in lactated Ringer's, 100 mL/kg/day iv; mean ± SD
Protocol: as §1

[3] = tested on: Rat Model of Hepatic Insufficiency due to 90% Hepatectomy; assay: Rat model of hepatic insufficiency due to 90% hepatectomy; type: in vivo
Description: Crj: Donryu male rats aged 8-9 weeks and weighing 250 g or so were used. During the experiment, the rats were given a dedicated feed MF (product of Oriental Yeast) and water ad libitum. After 12-h fasting, the rats were anesthetized with ether and a catheter was inserted into the right cervical vein of each animal and retained in the central vein. Subsequently, the rats were underwent 90% hepatectomy according to the method of Gaub et al. (J. Gaub et al., Hepatology, 4, 902-904, 1984). The catheter in the central vein was passed under the skin to connect the blade bones, fitted with a harness, passed through a protective coil and connected to a swivel (Bio-Cannula of Biomedica). The rats were transferred into a metabolic cage and subjected to the experiment under a non-anesthetized and unconstrained condition. The experimental fluids were administered constantly with the pumping speed set at 100 mL/kg/day. Immediately after the hepatectomy, 3 mL of a 20% glucose solution was administered to the rats subcutaneously; for 3 days after the hepatectomy, the rats were allowed to drink a 10% glucose solution and thereafter tap water. The experimental fluids were administered for 4 or 6 days. The treated groups were two, on being a control group administered with a lactated Ringer's injection [Lactec (registered trademark) of Otuka Seiyaku] and the other being an L-val group administered with valine (L-valine added to lactated Ringer's injection to a concentration of 16.88 g/L). A non-treated (NT) group was also set. After the end of the administration of the experimental fluids, the rats were anesthetized with ether and blood was taken from the abdominal aorta; thereafter, autopsy was done to collect liver samples.

[4] = tested on: Rat Model of CCl4-Induced Chronic Hepatopathy; assay: Rat model of CCl4-induced chronic hepatopathy; type: in vivo; settings: feed with 3 wt % L-valine for 14 weeks
Protocol: Crj: Donryu male rats aged 8-9 weeks were used. During the experiment, the rats were given a dedicated feed MF (product of Oriental Yeast) and water ad libitum. Carbon tetrachloride (product of Wako Pure Chemical Industries) was dissolved in olive oil (product of Wako Pure Chemical Industries) to prepare a 50% (v/v) solution, which was administered subcutaneously to the rats for 14 weeks on a twice-a-week basis (to give 28 shots), each time at a dose of 2 mL/kg, thereby preparing models of chronic hepatopathy. During the 14-week experiment, the rats were given an experimental feed which was a dedicated feed MF; this was given as such to the control group and as a mixture with 3 wt % L-valine to the L-val group. A non-treated (NT) group was also set. After the end of the 14-week experiment, the rats were anesthetized with ether and blood was taken from the abdominal aorta; thereafter, autopsy was done to collect liver samples.

[5] = tested on: Patient with chronic hepatitis C; assay: Peroral L-valine in patient with chronic hepatitis C; type: in vivo, human; settings: 4-month period after start of oral L-valine 1 g three times a day; mean±SD of four monthly tests
Description: Patient ([…]) with chronic hepatitis C was given oral administration of L-valine on a three-times-a-day basis, with one gram at each time. The average GOT and GPT levels of the patient for a 4-month period before the administration of L-valine were 89.0±21.9 IU/L and 91.5±23.1 IU/L, respectively, in terms of mean±SD obtained by four tests on a monthly basis. The average GOT and GPT levels for a 4-month-period after the start of valine administration were 68.3±20.4 IU/L and 73.0±24.3 IU/L, respectively, in terms of mean±SD obtained by four tests on a monthly basis; thus, significant (p<0.05 in t-test) decreases were observed. An ameliorating effect was also observed in platelet counts; the average platelet count for a 6-month period before the administration of L-valine was 15.7±1.7 (×10^4) in terms of mean±SD obtained by four tests on a monthly or bimonthly basis, whereas the average platelet count for a 4-month period after the start of valine administration was 20.4±0.9 (×104) in terms of mean±SD obtained by four tests on a monthly basis; thus, a significant (p<0.01 in t-test) increase was observed. It was therefore clear that L-valine is also effective in patients with chronic hepatitis.

[6] = experimental fluids administered for four days, mean ± SD
[7] = experimental fluids administered for six days, 20 animals

CC(C)[C@H](N)C(=O)O [L-Val, L-valine]
Alb [1]: 2.5 ± 0.1 g/dL | Fischer ratio BCAA/AAA [1]: 6.42 ± 0.40 | GOT [1]: 760.2 ± 215.4 IU/1 | GPT [1]: 415.7 ± 180.8 IU/1 | LDH [1]: 973.7 ± 362.0 IU/1 | TP [1]: 4.9 ± 0.3 g/dL | Fischer ratio BCAA/AAA [2]: 4.32 ± 1.74 | GOT [2]: 3241.9 ± 2567.2 IU/1 | GPT [2]: 1951.2 ± 1730.9 IU/l | LDH [2]: 3040.1 ± 4163.3 IU/l | TP [2]: 5.1 ± 0.4 g/dL | Alb [3, 6]: 1.8 ± 0.2 g/dL | Fischer ratio BCAA/AAA [3, 6]: 3.33 ± 1.11 | GOT [3, 6]: 402.3 ± 302.4 IU/l | GPT [3, 6]: 134.9 ± 76.3 IU/l | TP [3, 6]: 3.6 ± 0.5 g/dL | No. of deaths [3, 7]: 1 | No. of viable cases [3, 7]: 19 | Viability ([3]; experimental fluids administered for six days, 20 animals, P < 0.01 vs control): 95% | No. of deaths ([4]; 10 animals): 0 | No. of viable cases ([4]; 10 animals): 10 | Retention of ascites (No. of cases) ([4]; 10 animals): 1 | Retention of pleural effusion (No. of cases) ([4]; 10 animals): 0 | Fischer ratio BCAA/AAA ([4]; mean ± SD): 3.17 ± 0.96 | average GOT level [5]: 68.3±20.4 IU/L | average GPT level [5]: 73.0±24.3 IU/L | average platelet count [5]: 20.4±0.9 ×104
